Test results from US20250382280A1, “PYRAZOLE DERIVATIVES FOR THE INHIBITION OF PHAGOCYTOSIS” (Canadian Blood Services, priority 2022, published 2025).
Where two headings read alike, the source gives them in different places.

Assays:
[1] = test system: phagocytosis of anti-D-opsonized Rh(D+) red cells by monocytes; experiment: monocyte monolayer assay (MMA), in vitro phagocytosis assay; type: cell-based, human; set-up: key to Phagocytic index (PI): number of phagocytosed RBCs per 100 monocytes; settings: for Phagocytic index (PI): PI = (# of phagocytic red blood cells)/(300 monocytes) * 100; for IC50 / EC50: dose-inhibitory response; for IC50: 0.5-100 μM, read-out: IC50 for inhibition of phagocytosis; for effect on IVIg dose-response curve (cooperation/synergy with IVIg): compound added at its IC50 concentration to each IVIg concentration
Description: The MMA to screen compounds for their ability to inhibit phagocytosis was performed as previously described (Purohit, M. K. et al., Bioorg. Med. Chem. Lett. 2013; 23:2324-7; and Purohit, M. K. et al., Bioorg. Med. Chem. 2014; 22:2739-52.). Briefly, Mononuclear cells (PBMCs) were layered onto chamber slides and monocytes purified by adherence after 1 hr at 37° C. with 5% CO2. Drugs were solubilized in 100% DMSO and then diluted in Roswell Park Memorial Institute (RPMI) to the final concentration of 5 μM, as previously reported (8,9). Corresponding dimethyl sulfoxide (DMSO) volumes in RPMI medium were used as a control. After one hour, indicator Rh-positive red cells opsonized with anti-RhD were added to the chamber slides and then further incubated for 2 hours before fixing and counting phagocytosed red blood cells (RBCs) using phase-contrast microscopy. As a positive control for inhibition, Intravenous immunoglobulin (IVIg) was used, known to inhibit phagocytosis due to blocking of FcγRs. The phagocytosis index (PI) was determined as the number of phagocytosed RBCs in 100 monocytes. The percent inhibition of phagocytosis was determined by comparing the PI in each treated sample to the PI in the untreated sample, which was determined by normalizing the PI concentration in each treated sample (phagocytosis of opsonized RBCs with vehicle only, representing 100 percent phagocytosis.
Concentrations included 100 μM, 50 μM, 25 μM, 10 μM, 5 μM, 2.5 μM, 1 μM, and 0.5 μM.
The 80 selected pyrazole core compounds were screened using a concentration of 5 μM in the in vitro phagocytosis assay, referred to as the monocyte monolayer assay (MMA). Compounds were compared to a standard intravenous immunoglobulin (IVIg) at a concentration of 1 mg/mL.

PBMC, HEPG2, and HEK-293 [2] = experiment: LDH assay at higher concentrations (up to 250 μM); type: cell-based; settings: PBMCs, HEPG2, HEK293
Description: (§1) Cell lines (HepG2, liver-derived, HB-8065™; HEK293, kidney-derived cell line, CRL-1573™) were purchased from the ATCC. Both cell lines were cultured in Eagle's Minimum Essential Medium supplemented with 10% fetal calf serum.
(§2) To further determine the potential for toxicity of compounds KB-151 and KB-208, additional toxicity studies were done using higher concentrations, up to 250 μM of each compound, using LDH and MTT (FIGS. 4A-4D), and an apoptosis assay (Annexin V/PI) (FIGS. 5A-5C).

PBMC, HEPG2, and HEK-293 [3] = experiment: MTT assay at higher concentrations (up to 250 μM); type: cell-based, human; settings: PBMCs, HEPG2, HEK293
Description: as §1, §2

PBMC, HEPG2, and HEK-293 [4] = experiment: apoptosis assay (Annexin V/PI); type: cell-based, human; settings: 250 μM, 1 hour; PBMCs, HEPG2, HEK293
Description: PBMC, HEPG2, and HEK-293 cells were treated for 1 hour with the compound KB-151 or the compound KB-208 at a 250 μM concentration. 100 μM thimerosal was used as a positive control for viability (diluted in RPMI). Staining with Annexin V and PI was performed according to the manufacturer's procedure for the Annexin-V-FLUOS Staining Kit (Sigma) and samples were run through an SP6800 Spectral Cytometer.
as §2

ITP mice model = experiment: anti-CD41 antibody ITP mouse model (platelet count); type: in vivo; settings: Balb/c, day 4 after two treatment doses on days 2 and 3, 100 μM s.c. twice a day, vs CD-41 group (*P≤0.05)
Description: An in vivo phagocytosis inhibition assay was performed with KB-151 in a mouse model, Balb/c animals (FIG. 6A and FIG. 6B). A dose of 100 μM of KB-151 was injected to 20.5 g mice at 500 μL based on the following calculations:
A dose-escalation anti-CD41 antibody ITP mouse model was used.
(§3) The efficacy of KB-151 and KB-208 at diminishing the platelet level was assessed in three ITP mice models: C57BL/6 (FIG. 7), Balb/c (FIGS. 8A-8B), and CD1 (FIG. 9). […] The toxicity was also assessed using the Balb/c model.

[5] = 60-day toxicity in Balb/c mice (blood biochemistry, histopathology); type: in vivo; settings: after 60 days of treatment
Description: as §3

[6] = test system: attachment of antibody-opsonized RBCs to FcγRs on monocytes; experiment: room temperature RBC rosette assay (binding of anti-D opsonized RBCs to monocytes); type: cell-based; settings: 100 μM
Description: Fluorescent dye-labelled RBCs opsonized with anti-D were used to study the mechanism of phagocytosis inhibition using a room temperature assay to look for RBC rosettes (attachment of antibody-opsonized RBCs' to FcγRs) in the presence of monocytes. IVIg was used as the positive control and no treatment as the negative control. In the negative control, monocytes bound to the RBC and initiated phagocytosis (FIGS. 11A and 11E).

[7] = test system: FcγRI (CD64), FcγRII (CD32), and FcγRIII (CD16); experiment: FcγR expression on monocytes with monoclonal antibodies; type: cell-based; settings: monocytes untreated or treated
Description: Due to observing similar results as IVIG, the binding of KB-208 and KB-151 to FcγR was evaluated to determine the attachment between KB-208 or KB-151 and FcγR. Three monoclonal antibodies each specific for FcγRI (CD64), FcγRII (CD32), and FcγRIII (CD16) were used to test the resulting expression of FcγRI, FcγRII and FcγRIII.

HSP27 = experiment: signal transduction study, phosphorylated HSP27 level; type: cell-based; settings: no RBC, un-opsonized RBC
Description: (§4) The mechanism of action of KB-208 and KB-151 was investigated further to evaluate the effects on signal transduction. Many kinases were studied including Akt1/2/3 (T308), Akt1/2/3 (S473), CREB, EGF R1 eNOS, ERK1/2, Chk-2, c-Jun, Fgr, GSK-3a/p, GSK-3p, HSP27, p53 (S15), p53 (S46), p53 (S392), JNK 1/2/3, Lck, Lyn, MSK1/2, p70 S6 kinase (T389), p70 S6 kinase (T421/S424), PRAS40, p38a, PDGF RP, PLC-γ1, Src, PYK2, RSK1/2, RSK1/2/3, STAT2, STAT5a/b, WNK1, Yes, STAT1, STAT3 (Y705), STAT3 (S727), β-catenin, STAT6, and HSP60. […] It was then confirmed that KB-208 and KB-151 activate PP2A (in other words they increase its phosphatase activity) (FIG. 14). PP2A is a serine phosphatase that dephosphorylates HSP27. Deregulation of HSP27 also occurs in diseases other than immune cytopenias for example prostate cancer, colorectal cancer, and breast cancer.

PP2A = PP2A phosphatase activity; type: biochemical
Description: as §4

[8] = Homo sapiens, Monocyte, 5 μM compound, screening of the 80 compounds, read-out: Average inhibition (% ± standard deviation)
[9] = Homo sapiens, Monocyte, 5 μM, anti-D-opsonized Rh(D+) red cells, read-out: Inhibition percentage

In the case of CCOC(=O)c1nn(-c2ccccc2)c(C#N)c1NC(=O)c1nn(CC)cc1Br [KB-151], the “Phagocytic index (PI)” value ([1]; 5 μM) is reported as 17, the IC50 ([1]; Homo sapiens, Monocyte) is reported as 2.71 ± 0.786 µM and the inhibition at 5 µM [1, 8] is reported as 80 ± 3.68%. For the same compound, the inhibition at 5 µM [1, 9] was 80%, the EC50 ([1]; Homo sapiens, Monocyte, unit inferred) was 8 ± 4 µM and the “effect on IVIg dose-response curve (cooperation/synergy with IVIg)” value [1] was “no effect”. For the same compound, the IC50 [1] was 3 µM, the “toxicity by LDH” value (PBMC, HEPG2, and HEK-293 [2]) was “low to no toxicity” and the “toxicity by MTT” value (PBMC, HEPG2, and HEK-293 [3]) was “low to no toxicity”. For the same compound, the “toxicity by apoptosis assay (Annexin V/PI)” value (PBMC, HEPG2, and HEK-293 [4]) was “low to no toxicity”, the “platelet (PLT) count” value (ITP mice model) was “significant increase” and the “histopathology of liver, heart, spleen, lymph nodes, and kidney” value [5] was “showed abnormalities nor any toxicity”. For the same compound, the “toxicity (blood biochemistry)” value [5] was “Minimal toxicity”, the “binding of monocytes to anti-D opsonized RBCs and phagocytosis” value [6] was “inhibit the binding and inhibit phagocytosis similarly to IVIg” and the “binding to Fcγ receptors (FcγRI, FcγRII, FcγRIII expression on monocytes)” value [7] was “independent of binding the three tested Fcγ receptors”. For the same compound, the “effect on HSP27 phosphorylation” value (HSP27) was “dephosphorylate HSP27” and the PP2A phosphatase activity (PP2A) was “activate PP2A”.
For COC(=O)CC1CCN(C(=O)c2cc(-c3cccs3)nn2-c2ccccc2)CC1 [KB-208], the “Phagocytic index (PI)” value ([1]; 5 μM) was 7, the IC50 ([1]; Homo sapiens, Monocyte) was 4.21 ± 1.24 µM and the inhibition at 5 µM [1, 8] was 81 ± 3.43%. For the same compound, the inhibition at 5 µM [1, 9] was 81%, the EC50 ([1]; Homo sapiens, Monocyte) was 5 ± 0.2 µM and the “effect on IVIg dose-response curve (cooperation/synergy with IVIg)” value [1] was “no effect”. The IC50 [1] was 4 µM, the “toxicity by LDH” value (PBMC, HEPG2, and HEK-293 [2]) was “low to no toxicity” and the “toxicity by MTT” value (PBMC, HEPG2, and HEK-293 [3]) was “low to no toxicity”. For the same compound, the “toxicity by apoptosis assay (Annexin V/PI)” value (PBMC, HEPG2, and HEK-293 [4]) was “low to no toxicity”, the “binding of monocytes to anti-D opsonized RBCs and phagocytosis” value [6] was “inhibit the binding and inhibit phagocytosis similarly to IVIg” and the “binding to Fcγ receptors (FcγRI, FcγRII, FcγRIII expression on monocytes)” value [7] was “independent of binding the three tested Fcγ receptors”. For the same compound, the “effect on HSP27 phosphorylation” value (HSP27) was “dephosphorylate HSP27” and the PP2A phosphatase activity (PP2A) was “activate PP2A”.
With COc1cc(-c2cc[nH]n2)cc(OC)c1OC [KB-194] the inhibition at 5 µM [1, 8] was 39 ± 4.96%.
In the case of CCn1nccc1C1CCCN1S(=O)(=O)c1cc(C)ccc1C (stereo not drawn) [KB-198a], the IC50 ([1]; Homo sapiens, Monocyte) is reported as 227 µM.
In the case of Cc1[nH]n(-c2ccccc2)c(=O)c1C1(C(F)(F)F)C(=O)Nc2c1c(=O)[nH]c(=O)n2Cc1ccccc1 (stereo not drawn) [KB-167], the “Phagocytic index (PI)” value ([1]; 5 μM) is reported as 14, the inhibition at 5 µM [1, 8] is reported as 53 ± 4.18% and the inhibition at 5 µM [1, 9] is reported as 53%.
In the case of CCOC(=O)c1cnn(-c2ccccc2)c1NC(=O)Cc1cccc(OC)c1 [KB-159], the inhibition at 5 µM [1, 8] is reported as 15 ± 8.4%.
For CN(C)CCNC(=O)c1cc(-c2ccc(Cl)cc2)nn1-c1ccccc1 [KB-201], the inhibition at 5 µM [1, 8] was 0%.
In the case of CCn1cc(Br)c(C(=O)Nc2cc(Cl)ccc2OC)n1 [KB-146], the inhibition at 5 µM [1, 8] is reported as 10 ± 9.56%.
For Cc1ccccc1C1CCCN1C(=O)Cn1nc(C(F)(F)F)cc1C (stereo not drawn) [KB-196], the inhibition at 5 µM [1, 8] was 24 ± 5.76%.
For CCc1cccc(NS(=O)(=O)c2cnn(CC)c2C)c1 [KB-177], the inhibition at 5 µM [1, 8] was 4 ± 9.76%.
With Cc1c(S(=O)(=O)N2CCCC2c2ccccc2Cl)cnn1C(F)F (stereo not drawn) [KB-197] the inhibition at 5 µM [1, 8] was 45 ± 4.97%.
In the case of Cc1cc2c(cc1C)NC(c1c(C)n(C)n(-c3ccccc3)c1=O)C1=C(CC(C)(C)CC1=O)N2 (stereo not drawn) [KB-153], the inhibition at 5 µM [1, 8] is reported as 8 ± 8.3%.
In the case of CC(=O)n1nc(C)c(S(=O)(=O)N2CCCC2)c1C [KB-188], the inhibition at 5 µM [1, 8] is reported as -26 ± 7.94%.
In the case of Cn1ncc(Br)c1C(=O)Oc1ccccc1Cl [KB-147], the inhibition at 5 µM [1, 8] is reported as 0%.
Compound CNC(=O)c1cc(-c2cccs2)[nH]n1 [KB-202] has an inhibition at 5 µM [1, 8] of 33 ± 2.31%.
With Cc1nn(C)c(C)c1-c1cc(C(=O)O)[nH]n1 [KB-189] the “Phagocytic index (PI)” value ([1]; 5 μM) was 30, the inhibition at 5 µM [1, 8] was 52 ± 4.75% and the inhibition at 5 µM [1, 9] was 52%.
COC(=O)c1n[nH]c(N)c1Cl [KB-134] showed an inhibition at 5 µM [1, 8] of 9 ± 6.99%.
For CSc1cccc(NC(=O)c2cnn(C)c2-n2cccc2)c1 [KB-212], the “Phagocytic index (PI)” value ([1]; 5 μM) was 19, the inhibition at 5 µM [1, 8] was 47 ± 9.67% and the inhibition at 5 µM [1, 9] was 47%.
CC(=O)N1N=C(c2cccs2)CC1c1ccccc1C (stereo not drawn) [KB-161] showed an inhibition at 5 µM [1, 8] of 7 ± 8.43%.
